This is an account of results in PubChem BioAssay (NCI).

Among the test systems are U251 CNS; UACC-257 melanoma; MALME-3M melanoma; NCI-H522 lung; HCT-116 colon; A498 renal; HOP-62 NSCLC; MCF7 breast; SF-268 CNS; OVCAR-8 ovarian.
Common to all, as to test: NCI tumour cell line growth inhibition, 48 h

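How tested: cells in 96-well plates exposed to compound for 48 hours at five concentrations. Abbreviation: GI50, concentration required for 50% inhibition of growth. TGI is the concentration that stops growth completely.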

With `COc1cc2c(cc1OCCCOc1cc3c(cc1OC)C(=O)N1CC(F)(F)C[C@H]1C=N3)N=C[C@@H]1CC(F)(F)CN1C2=O`, the GI50 with U251 CNS is 0.166 µM; with UACC-257 melanoma, 2 µM; in the assay with MALME-3M melanoma, 1.27 µM; in the assay with NCI-H522 lung, 0.228 µM; with HCT-116 colon it was 0.415 µM; with A498 renal, 1.03 µM. For the same compound, the GI50 is 0.206 µM in the assay on HOP-62 NSCLC, 0.195 µM in the assay with MCF7 breast, 0.216 µM in the assay on SF-268 CNS and 0.899 µM in the assay with OVCAR-8 ovarian. Besides, the TGI worked out at 11.4 µM in the assay with U251 CNS; 5.46 µM in the assay on UACC-257 melanoma; 3.19 µM with MALME-3M melanoma; 1.03 µM in the assay on NCI-H522 lung; 2.25 µM in the assay with HCT-116 colon; 2.65 µM in the assay with A498 renal. Also, the TGI in the assay on HOP-62 NSCLC was determined as 2.59 µM; with MCF7 breast, 11.4 µM; with SF-268 CNS it was 17.8 µM; in the assay with OVCAR-8 ovarian, 9.16 µM.
Turning to `COc1ccc2c(c1)C(=O)c1c-2n(CCCCl)c(=O)c2cc([N+](=O)[O-])ccc12`, the GI50 is below 0.01 µM in the assay with U251 CNS; 1.59 µM in the assay on UACC-257 melanoma; 0.0533 µM in the assay on MALME-3M melanoma; below 0.0265 µM in the assay with NCI-H522 lung; 1.39 µM in the assay with A498 renal; below 0.01 µM with MCF7 breast. Moreover, the GI50 in the assay with SF-268 CNS was below 0.0262 µM; in the assay with OVCAR-8 ovarian it was 0.289 µM. Besides, the TGI in the assay on U251 CNS is 0.476 µM; in the assay with UACC-257 melanoma it was 98.5 µM; in the assay on MALME-3M melanoma it was 0.461 µM; with NCI-H522 lung, 0.963 µM; with HCT-116 colon, 0.737 µM; in the assay on OVCAR-8 ovarian it was above 100 µM.
As for `N=C(N)SC(c1ccccc1)c1ccccc1`, the TGI in the assay on U251 CNS turned out to be 29.4 µM; with UACC-257 melanoma, 28.4 µM; in the assay with MALME-3M melanoma it was 34.6 µM; in the assay on NCI-H522 lung, 34.8 µM; in the assay with HCT-116 colon, 24.6 µM; with A498 renal, 36.6 µM. For the same compound, the TGI with HOP-62 NSCLC was found to be 41.1 µM; in the assay with MCF7 breast it was 30 µM; with SF-268 CNS it was 78.5 µM; in the assay on OVCAR-8 ovarian, 36.4 µM.
On to `NS(=O)(=O)c1ccc(C(=O)O)cc1`, for which the TGI in the assay on U251 CNS, in the assay on MALME-3M melanoma, in the assay with NCI-H522 lung, in the assay with HCT-116 colon, in the assay with A498 renal and in the assay with HOP-62 NSCLC was above 100 µM throughout. Besides, the TGI in the assay on MCF7 breast, in the assay on SF-268 CNS and in the assay on OVCAR-8 ovarian was above 100 µM each time.
Regarding `CC(C)(c1ccccc1)c1ccc(Oc2ccc3c(c2)-c2nc-3nc3[nH]c(nc4nc(nc5[nH]c(n2)c2ccc(Oc6ccc(C(C)(C)c7ccccc7)cc6)cc52)-c2cc(Oc5ccc(C(C)(C)c6ccccc6)cc5)ccc2-4)c2ccc(Oc4ccc(C(C)(C)c5ccccc5)cc4)cc32)cc1`, the TGI in the assay on U251 CNS, with UACC-257 melanoma, with MALME-3M melanoma, in the assay on NCI-H522 lung, with HCT-116 colon and in the assay on A498 renal was above 100 µM in each case. In addition, the TGI with HOP-62 NSCLC and in the assay on OVCAR-8 ovarian was above 100 µM throughout.
With `Cc1cccc(NC(N)=S)c1`, the TGI in the assay on U251 CNS, in the assay with UACC-257 melanoma, with MALME-3M melanoma, in the assay with NCI-H522 lung, in the assay on HCT-116 colon and in the assay with A498 renal was above 100 µM in each case. The TGI in the assay on HOP-62 NSCLC and in the assay with SF-268 CNS was above 100 µM each time.
Take `O=C(Nc1ccc(-n2ccc3c(NC(=O)c4ccccc4)ncnc32)cc1)Nc1ccc(Cl)c(C(F)(F)F)c1`: the GI50 was 1.2 µM with U251 CNS; 2.76 µM in the assay on UACC-257 melanoma; 1.94 µM in the assay with MALME-3M melanoma; 1.07 µM in the assay with NCI-H522 lung; 1.47 µM in the assay with HCT-116 colon; 1.51 µM with A498 renal. Moreover, the GI50 in the assay with HOP-62 NSCLC is 2.16 µM; in the assay on MCF7 breast, 1.64 µM; in the assay on SF-268 CNS it was 2.02 µM. The TGI came out at 2.55 µM in the assay with U251 CNS; 6.39 µM in the assay on UACC-257 melanoma; 4.54 µM in the assay on MALME-3M melanoma; 2.89 µM with NCI-H522 lung; 2.96 µM in the assay on HCT-116 colon; 3.65 µM in the assay with A498 renal. In addition, the TGI in the assay with HOP-62 NSCLC is 4.45 µM; with MCF7 breast, 3.24 µM; in the assay with SF-268 CNS it was 4.99 µM.
In the case of `CCc1cc(C)cc2[n+]1CC=C2C`, the TGI in the assay with U251 CNS, in the assay on UACC-257 melanoma, in the assay with MALME-3M melanoma, with NCI-H522 lung, with HOP-62 NSCLC and with SF-268 CNS was above 100 µM throughout. The same compound came in with a TGI with OVCAR-8 ovarian above 100 µM.
On to `CN(C)C=O.CN(C)C=O.CN1C(C(=O)Nc2ccccn2)=C([O-])c2ccccc2S1(=O)=O.CN1C(C(=O)Nc2ccccn2)=C([O-])c2ccccc2S1(=O)=O.[Cu+2]`, for which the TGI with U251 CNS was above 100 µM; with UACC-257 melanoma, above 100 µM; in the assay with MALME-3M melanoma, above 100 µM; in the assay with NCI-H522 lung it was above 100 µM; in the assay with HCT-116 colon it was above 100 µM; in the assay with A498 renal, 65.3 µM. In addition, the results for the TGI with HOP-62 NSCLC, in the assay with SF-268 CNS and in the assay on OVCAR-8 ovarian were 78.8 µM, above 100 µM and above 100 µM, respectively. The GI50 in the assay on A498 renal is 24.2 µM.
For `COc1ccc(C(=O)NNC(=O)c2nsc3ccccc23)cc1`, the TGI with U251 CNS, in the assay on UACC-257 melanoma, in the assay with HCT-116 colon, in the assay on HOP-62 NSCLC, in the assay with SF-268 CNS and in the assay with OVCAR-8 ovarian was above 100 µM in each case.
As to `COC(=O)C12OCC34C(CC5C(C)C6=CC(=O)OC6=CC5(C)C3C(O)C1O)OC(=O)C(OC(C)=O)C24` (stereo not given), the TGI in the assay on U251 CNS stood at 57.8 µM; in the assay on UACC-257 melanoma, 30 µM; with MALME-3M melanoma, 21.9 µM; with NCI-H522 lung, 24.6 µM; in the assay with HCT-116 colon it was 37.2 µM; in the assay with A498 renal it was 43.9 µM. The TGI in the assay on HOP-62 NSCLC is 53.2 µM; in the assay with SF-268 CNS, 40.1 µM; with OVCAR-8 ovarian, 34.1 µM.
`O=C1CC(c2ccccc2)NCCCCN2CC(CN1)C(C(O)c1ccccc1)C2=O` (stereo not given): the TGI in the assay on U251 CNS, in the assay with UACC-257 melanoma, in the assay with MALME-3M melanoma, in the assay with NCI-H522 lung, with HCT-116 colon and in the assay with A498 renal was above 100 µM throughout. For the same compound, the TGI with HOP-62 NSCLC, with MCF7 breast, with SF-268 CNS and in the assay on OVCAR-8 ovarian was above 100 µM in each case.
For the compound `CC1(C)CCCC2(C)C3=C(CCC12)C(=O)OC3` (stereo not given), the TGI in the assay with U251 CNS, with UACC-257 melanoma, in the assay with MALME-3M melanoma, in the assay on NCI-H522 lung, in the assay with HCT-116 colon and in the assay on A498 renal was above 100 µM each time. Besides, the TGI in the assay on HOP-62 NSCLC, in the assay on MCF7 breast, with SF-268 CNS and in the assay with OVCAR-8 ovarian was above 100 µM in each case.
`NC(CCCNc1ccc(O)cc1)C(=O)O` (stereo not given): the TGI in the assay with U251 CNS is above 100 µM; with UACC-257 melanoma, above 70.5 µM; in the assay with MALME-3M melanoma, above 100 µM; in the assay on NCI-H522 lung, above 100 µM; with HCT-116 colon, 32.1 µM; in the assay on A498 renal it was above 73.1 µM. Also, the TGI with HOP-62 NSCLC was above 100 µM; in the assay on SF-268 CNS it was above 62.6 µM; with OVCAR-8 ovarian, above 62.2 µM.
In the case of `Cc1cc(N2CCCCC2)nc(NCc2cc(Nc3ccnc4cc(Cl)ccc34)ccc2F)n1`, the GI50 is 1.71 µM with U251 CNS; 1.32 µM with UACC-257 melanoma; 1.71 µM with NCI-H522 lung; 1.64 µM in the assay with HCT-116 colon; 0.178 µM in the assay on A498 renal; 1.4 µM with HOP-62 NSCLC. For the same compound, the GI50 is 0.298 µM in the assay on MCF7 breast, 1.35 µM in the assay on SF-268 CNS and 2.05 µM with OVCAR-8 ovarian. Besides, the TGI in the assay on U251 CNS amounted to 3.15 µM; in the assay with UACC-257 melanoma, 2.85 µM; in the assay with NCI-H522 lung, 3.37 µM; with HCT-116 colon, 3.5 µM; in the assay on A498 renal it was 0.999 µM; in the assay on HOP-62 NSCLC, 2.89 µM. Further, the figures for the TGI with MCF7 breast, in the assay with SF-268 CNS and in the assay on OVCAR-8 ovarian were 1.46 µM, 3.11 µM and 4.68 µM, respectively.
For `NCc1ccc(O)c(O)c1O`, the TGI is 52.6 µM in the assay on U251 CNS; above 75.6 µM in the assay with UACC-257 melanoma; above 100 µM in the assay on MALME-3M melanoma; above 90.9 µM with NCI-H522 lung; 30.5 µM in the assay on HCT-116 colon; above 100 µM in the assay with A498 renal. Further, the TGI with HOP-62 NSCLC was above 73.9 µM; in the assay on MCF7 breast it was 36.3 µM; in the assay on SF-268 CNS, 61.6 µM; in the assay on OVCAR-8 ovarian it was 49.1 µM.
`Cn1c(=O)c2c(nc(N3CCOCC3)n2CCCNCC(O)c2ccc(O)c(O)c2)n(C)c1=O` (stereo not given): the TGI with U251 CNS, in the assay with UACC-257 melanoma, in the assay on MALME-3M melanoma, with NCI-H522 lung, in the assay on HCT-116 colon and with A498 renal was above 100 µM in each case. For the same compound, the TGI in the assay on HOP-62 NSCLC, with MCF7 breast, in the assay with SF-268 CNS and in the assay on OVCAR-8 ovarian was above 100 µM in each case.
Regarding `Cc1nc2ccccc2c(=O)n1Nc1ccc(C(=O)O)cc1`, the TGI with U251 CNS, with UACC-257 melanoma, in the assay with MALME-3M melanoma, with NCI-H522 lung, in the assay with HCT-116 colon and in the assay on A498 renal was above 100 µM each time. Further, the TGI with HOP-62 NSCLC, in the assay on MCF7 breast, with SF-268 CNS and with OVCAR-8 ovarian was above 100 µM throughout.
Consider `CC(C)C(C)C(O)C(O)C(C)C1CCC2C3COC(=O)C4CC(O)C(O)CC4(C)C3CCC12C` (stereo not given), for which the TGI with U251 CNS, in the assay with UACC-257 melanoma, with MALME-3M melanoma, with NCI-H522 lung, in the assay on HCT-116 colon and in the assay on A498 renal was above 100 µM in each case. Moreover, the TGI in the assay with MCF7 breast, in the assay on SF-268 CNS and in the assay on OVCAR-8 ovarian was above 100 µM throughout.
